From PubChem BioAssay AID1259407 (Chemical Carcinogenesis Research Information System (CCRIS), 2018)
Active and inactive are the calls of the source. How the calls were made is not given here.

System: CCRIS mutagenicity, Ames/micronucleus/aberration tests
Assay: CCRIS mutagenicity studies
[1] = Test System: AMES SALMONELLA TYPHIMURIUM, Strain/Indicator: TA98, Metabolic Activation: NONE, Method: PREINCUBATION
[2] = Test System: AMES SALMONELLA TYPHIMURIUM, Strain/Indicator: TA100, Metabolic Activation: NONE, Method: PREINCUBATION
[3] = Test System: AMES SALMONELLA TYPHIMURIUM, Strain/Indicator: TA1535, Metabolic Activation: NONE, Method: PREINCUBATION
[4] = Test System: AMES SALMONELLA TYPHIMURIUM, Strain/Indicator: TA1537, Metabolic Activation: NONE, Method: PREINCUBATION
[5] = Test System: AMES SALMONELLA TYPHIMURIUM, Strain/Indicator: TA98, Metabolic Activation: NONE, Method: STANDARD PLATE
[6] = Test System: AMES SALMONELLA TYPHIMURIUM, Strain/Indicator: TA98, Metabolic Activation: RAT, LIVER, S-9, AROCLOR 1254, Method: STANDARD PLATE
[7] = Test System: AMES SALMONELLA TYPHIMURIUM, Strain/Indicator: TA100, Metabolic Activation: NONE, Method: STANDARD PLATE
[8] = Test System: AMES SALMONELLA TYPHIMURIUM, Strain/Indicator: TA100, Metabolic Activation: RAT, LIVER, S-9, AROCLOR 1254, Method: STANDARD PLATE
[9] = Test System: AMES SALMONELLA TYPHIMURIUM, Strain/Indicator: TA100, Metabolic Activation: RAT, LIVER, S-9, PCB, Method: PREINCUBATION

`CNCCO` was tested, and the mutagenic call (Test System: AMES SALMONELLA TYPHIMURIUM, Strain/Indicator: TA98, Metabolic Activation: HAMSTER, LIVER, S-9, AROCLOR 1254 (10%), Method: PREINCUBATION) was “inactive; negative”, the mutagenic call [1] was “inactive; negative” and the mutagenic call (Test System: AMES SALMONELLA TYPHIMURIUM, Strain/Indicator: TA98, Metabolic Activation: RAT, LIVER, S-9, AROCLOR 1254 (10%), Method: PREINCUBATION) was “inactive; negative”. For the same compound, the mutagenic call (Test System: AMES SALMONELLA TYPHIMURIUM, Strain/Indicator: TA100, Metabolic Activation: HAMSTER, LIVER, S-9, AROCLOR 1254 (10%), Method: PREINCUBATION) was “inactive; negative”, the mutagenic call [2] was “inactive; negative” and the mutagenic call (Test System: AMES SALMONELLA TYPHIMURIUM, Strain/Indicator: TA100, Metabolic Activation: RAT, LIVER, S-9, AROCLOR 1254 (10%), Method: PREINCUBATION) was “inactive; negative”. The mutagenic call (Test System: AMES SALMONELLA TYPHIMURIUM, Strain/Indicator: TA1535, Metabolic Activation: HAMSTER, LIVER, S-9, AROCLOR 1254 (10%), Method: PREINCUBATION) was “inactive; negative”, the mutagenic call [3] was “inactive; negative” and the mutagenic call (Test System: AMES SALMONELLA TYPHIMURIUM, Strain/Indicator: TA1535, Metabolic Activation: RAT, LIVER, S-9, AROCLOR 1254 (10%), Method: PREINCUBATION) was “inactive; negative”. The mutagenic call (Test System: AMES SALMONELLA TYPHIMURIUM, Strain/Indicator: TA1537, Metabolic Activation: HAMSTER, LIVER, S-9, AROCLOR 1254 (10%), Method: PREINCUBATION) was “inactive; negative”, the mutagenic call [4] was “inactive; negative” and the mutagenic call (Test System: AMES SALMONELLA TYPHIMURIUM, Strain/Indicator: TA1537, Metabolic Activation: RAT, LIVER, S-9, AROCLOR 1254 (10%), Method: PREINCUBATION) was “inactive; negative”.

In the case of `O=C(c1ccccc1)C1OC1c1ccccc1` (stereo not drawn), the mutagenic call [5] is reported as “inactive; negative”, the mutagenic call [6] is reported as “inactive; negative” and the mutagenic call [7] is reported as “active; positive”. For the same compound, the mutagenic call [8] was “active; positive”.

With `C=C(C)C(=O)OCCOC1C=CC2C3CCC(C3)C12` (stereo not drawn) the mutagenic call (Test System: CHINESE HAMSTER OVARY, Strain/Indicator: CHO-K1-BH4 (HGPRT), Metabolic Activation: NONE, Method: MONOLAYER) was “inactive; negative” and the mutagenic call (Test System: CHINESE HAMSTER OVARY, Strain/Indicator: CHO-K1-BH4 (HGPRT), Metabolic Activation: NONE, Method: SUSPENSION/PLATE) was “active; positive”.

With `O=C(N=c1sn(C(=O)c2cccc(Cl)c2)c2ccc([N+](=O)[O-])cc12)c1cccc(Cl)c1` the mutagenic call (Test System: AMES SALMONELLA TYPHIMURIUM, Strain/Indicator: TA100, Metabolic Activation: S-9, Method: STANDARD PLATE) was “active; positive”.

In the case of `CC(N)CCN` (stereo not drawn), the mutagenic call [1] is reported as “inactive; negative”, the mutagenic call (Test System: AMES SALMONELLA TYPHIMURIUM, Strain/Indicator: TA98, Metabolic Activation: RAT, LIVER, S-9, PCB, Method: PREINCUBATION) is reported as “inactive; negative” and the mutagenic call [2] is reported as “inactive; negative”. For the same compound, the mutagenic call [9] was “inactive; negative”.

`c1ccc2[nH]cnc2c1` was tested, and the mutagenic call (Test System: AMES SALMONELLA TYPHIMURIUM, Strain/Indicator: TA97, Metabolic Activation: HAMSTER, LIVER, S-9, AROCLOR 1254 (10 OR 30%), Method: PREINCUBATION) was “inactive; negative”, the mutagenic call (Test System: AMES SALMONELLA TYPHIMURIUM, Strain/Indicator: TA97, Metabolic Activation: NONE, Method: PREINCUBATION) was “inactive; negative” and the mutagenic call (Test System: AMES SALMONELLA TYPHIMURIUM, Strain/Indicator: TA97, Metabolic Activation: RAT, LIVER, S-9, AROCLOR 1254 (10 OR 30%), Method: PREINCUBATION) was “inactive; negative”. For the same compound, the mutagenic call (Test System: AMES SALMONELLA TYPHIMURIUM, Strain/Indicator: TA98, Metabolic Activation: HAMSTER, LIVER, S-9, AROCLOR 1254 (10 OR 30%), Method: PREINCUBATION) was “inactive; negative”, the mutagenic call [1] was “inactive; negative” and the mutagenic call (Test System: AMES SALMONELLA TYPHIMURIUM, Strain/Indicator: TA98, Metabolic Activation: RAT, LIVER, S-9, AROCLOR 1254 (10 OR 30%), Method: PREINCUBATION) was “inactive; negative”. For the same compound, the mutagenic call (Test System: AMES SALMONELLA TYPHIMURIUM, Strain/Indicator: TA100, Metabolic Activation: HAMSTER, LIVER, S-9, AROCLOR 1254 (10 OR 30%), Method: PREINCUBATION) was “inactive; negative”, the mutagenic call [2] was “inactive; negative” and the mutagenic call (Test System: AMES SALMONELLA TYPHIMURIUM, Strain/Indicator: TA100, Metabolic Activation: RAT, LIVER, S-9, AROCLOR 1254 (10 OR 30%), Method: PREINCUBATION) was “inactive; negative”. For the same compound, the mutagenic call (Test System: AMES SALMONELLA TYPHIMURIUM, Strain/Indicator: TA1535, Metabolic Activation: HAMSTER, LIVER, S-9, AROCLOR 1254 (10 OR 30%), Method: PREINCUBATION) was “inactive; negative”, the mutagenic call [3] was “inactive; negative” and the mutagenic call (Test System: AMES SALMONELLA TYPHIMURIUM, Strain/Indicator: TA1535, Metabolic Activation: RAT, LIVER, S-9, AROCLOR 1254 (10 OR 30%), Method: PREINCUBATION) was “inactive; negative”. For the same compound, the mutagenic call (Test System: AMES SALMONELLA TYPHIMURIUM, Strain/Indicator: TA1537, Metabolic Activation: HAMSTER, LIVER, S-9, AROCLOR 1254 (10 OR 30%), Method: PREINCUBATION) was “inactive; negative”, the mutagenic call [4] was “inactive; negative” and the mutagenic call (Test System: AMES SALMONELLA TYPHIMURIUM, Strain/Indicator: TA1537, Metabolic Activation: RAT, LIVER, S-9, AROCLOR 1254 (10 OR 30%), Method: PREINCUBATION) was “inactive; negative”.

In the case of `NC(=O)N(CCCCO)N=O`, the mutagenic call (Test System: E. COLI B, Strain/Indicator: H/R30R, Metabolic Activation: NONE) is reported as “active; positive” and the mutagenic call (Test System: E. COLI B, Strain/Indicator: HS30R, Metabolic Activation: NONE) is reported as “active; positive”.

For `COC(=O)[C@@H](C)Cl`, the mutagenic call [2] was “active; positive” and the mutagenic call [9] was “active; positive”.

`CC(=C\C1=CCOC1=O)/C=C(C)/C=C/C=C(\C)C(=O)[C@]12O[C@H]1[C@@](O)(CCO)NC2=O` was tested, and the mutagenic call [2] was “active; positive”.

With `Cc1cc2nccnc2c2nc(N)n(C)c12` the mutagenic call [6] was “active; positive”.

`CN(C)CCNS(=O)(=O)c1cccc2cccnc12` was tested, and the mutagenic call [5] was “inactive; negative”, the mutagenic call [6] was “inactive; negative” and the mutagenic call [7] was “inactive; negative”. The mutagenic call [8] was “inactive; negative”, the mutagenic call (Test System: AMES SALMONELLA TYPHIMURIUM, Strain/Indicator: TA1535, Metabolic Activation: NONE, Method: STANDARD PLATE) was “inactive; negative” and the mutagenic call (Test System: AMES SALMONELLA TYPHIMURIUM, Strain/Indicator: TA1535, Metabolic Activation: RAT, LIVER, S-9, AROCLOR 1254, Method: STANDARD PLATE) was “inactive; negative”. The mutagenic call (Test System: AMES SALMONELLA TYPHIMURIUM, Strain/Indicator: TA1537, Metabolic Activation: NONE, Method: STANDARD PLATE) was “inactive; negative” and the mutagenic call (Test System: AMES SALMONELLA TYPHIMURIUM, Strain/Indicator: TA1537, Metabolic Activation: RAT, LIVER, S-9, AROCLOR 1254, Method: STANDARD PLATE) was “inactive; negative”.

In the case of `N#Cc1cc([N+](=O)[O-])ccc1N`, the mutagenic call [1] is reported as “active; positive”, the mutagenic call (Test System: AMES SALMONELLA TYPHIMURIUM, Strain/Indicator: TA98, Metabolic Activation: RAT, LIVER, S-9, PHENOBARBITAL AND BETA-NAPHTHOFLAVONE, Method: PREINCUBATION) is reported as “active; positive” and the mutagenic call [2] is reported as “active; positive”. For the same compound, the mutagenic call (Test System: AMES SALMONELLA TYPHIMURIUM, Strain/Indicator: TA100, Metabolic Activation: RAT, LIVER, S-9, PHENOBARBITAL AND BETA-NAPHTHOFLAVONE, Method: PREINCUBATION) was “active; positive”.

In the case of `COC(=O)/C(C#N)=C/c1ccco1`, the mutagenic call [1] is reported as “inactive; negative”.

`c1ccc2cc3c4c(ccc3cc2c1)CCC1OC41` (stereo not drawn) was tested, and the mutagenic call (Test System: CHINESE HAMSTER V-79, Strain/Indicator: V-79/8-AZAGUANINE, Metabolic Activation: NONE, Method: STANDARD PLATE) was “active; positive”.
